Reference: ChEMBL document CHEMBL5137032, “Design, synthesis of DNA-interactive 4-thiazolidinone-based indolo-/pyrroloazepinone conjugates as potential cytotoxic and topoisomerase I inhibitors” (Eur J Med Chem, 2022)
Active and inactive are the calls of the source. The calls are words filed in the database; no cut-off is given here.

Tests used:
Format in all cases: functional, cell-based
A549 [1] = assay: Cytotoxicity against human A549 cells assessed as cell growth inhibition incubated for 48 hrs by MTT assay; settings: A549, 48 h
HCT-116 = assay: Cytotoxicity against human HCT-116 cells assessed as cell growth inhibition incubated for 48 hrs by MTT assay; settings: HCT-116, 48 h
SK-MEL-28 [2] = assay: Cytotoxicity against human SK-MEL-28 cells assessed as cell growth inhibition incubated for 48 hrs by MTT assay; settings: SK-MEL-28, 48 h
HT-29 = assay: Cytotoxicity against human HT-29 cells assessed as cell growth inhibition incubated for 48 hrs by MTT assay; settings: HT-29, 48 h
MCF7 = assay: Cytotoxicity against human MCF7 cells assessed as cell growth inhibition incubated for 48 hrs by MTT assay; settings: MCF7, 48 h
A549 [3] = assay: Induction of intracellular ROS generation in human A549 cells at […] incubated for 48 hrs by […] fluorescence microscopic analysis; settings: dose 0.47 µM
SK-MEL-28 [4] = assay: Induction of intracellular ROS generation in human SK-MEL-28 cells at 2.26 uM incubated for 48 hrs by […] fluorescence microscopic analysis

Compound | IC50 (A549 [1]) | IC50 (HCT-116) | IC50 (SK-MEL-28 [2]) | IC50 (HT-29) | IC50 (MCF7) | Activity (A549 [3]) | Activity (SK-MEL-28 [4])
O=C1N/C(=N\Cc2ccc(C(F)(F)F)cc2)S/C1=C1/CCNC(=O)c2[nH]ccc21 | > 100 µM | > 100 µM | > 100 µM | > 50 µM | > 100 µM |  | 
O=C1N/C(=N\CCc2ccc(F)cc2)S/C1=C1/CCNC(=O)c2[nH]c3ccccc3c21 | > 50 µM | > 50 µM | > 50 µM | > 50 µM | > 50 µM |  | 
COc1ccc(CC/N=C2\NC(=O)/C(=C3\CCNC(=O)c4[nH]ccc43)S2)cc1 | 16 µM | 10.8 µM | 7.86 µM | 8.14 µM | 6.47 µM |  | 
O=C1N/C(=N\Cc2ccc(Cl)cc2)S/C1=C1/CCNC(=O)c2[nH]c3ccccc3c21 | 33.6 µM | 22.7 µM | > 50 µM | 39.9 µM | 46.8 µM |  | 
COc1ccc(C/N=C2\NC(=O)/C(=C3\CCNC(=O)c4[nH]c5ccccc5c43)S2)cc1OC | 30 µM | 16.4 µM | 25.1 µM | > 50 µM | 23.7 µM |  | 
O=C1N/C(=N\Cc2ccc3c(c2)OCO3)S/C1=C1/CCNC(=O)c2[nH]c3ccccc3c21 | > 50 µM | 21.4 µM | > 50 µM | 36.5 µM | 31.4 µM |  | 
O=C1N/C(=N\Cc2ccccc2)S/C1=C1/CCNC(=O)c2[nH]ccc21 | 26.9 µM | 49.7 µM | 38.4 µM | 36.5 µM | 31.1 µM |  | 
O=C1N/C(=N\CCc2ccccc2)S/C1=C1/CCNC(=O)c2[nH]ccc21 | 19.5 µM | 17.8 µM | 12.3 µM | 24.9 µM | 21 µM |  | 
COc1ccc(C/N=C2\NC(=O)/C(=C3\CCNC(=O)c4c3ccn4C)S2)cc1 | > 100 µM | > 100 µM | > 100 µM | 32.4 µM | > 100 µM |  | 
O=C1N/C(=N\Cc2ccc(F)cc2)S/C1=C1/CCNC(=O)c2[nH]ccc21 | 22.4 µM | 16.9 µM | 11.2 µM | 26 µM | 43.1 µM |  | 
COc1ccc(CC/N=C2\NC(=O)/C(=C3\CCNC(=O)c4[nH]c5ccccc5c43)S2)cc1 | 20.5 µM | 18.6 µM | 3.49 µM | 15 µM | 9.41 µM |  | 
O=C1N/C(=N\Cc2ccccc2)S/C1=C1/CCNC(=O)c2[nH]c3ccccc3c21 | 48.2 µM | 34.4 µM | 29.8 µM | 31.8 µM | 31 µM |  | 
COc1cccc2c1C(=O)c1c(O)c3c(c(O)c1C2=O)C[C@@](O)(C(=O)CO)C[C@@H]3O[C@H]1C[C@H](N)[C@H](O)[C@H](C)O1 [DOXORUBICIN] |  | 7.41 µM | 1.64 µM |  |  |  | 
CC(C)(C)c1ccc(C/N=C2\NC(=O)/C(=C3\CCNC(=O)c4[nH]c5ccccc5c43)S2)cc1 | 19.3 µM | 15.9 µM | 8.97 µM | 13.6 µM | 9.01 µM |  | 
Cn1c2c(c3ccccc31)/C(=C1\S/C(=N/Cc3ccccc3)NC1=O)CCNC2=O | > 50 µM | > 50 µM | > 50 µM | > 50 µM | > 50 µM |  | 
O=c1[nH]cc(F)c(=O)[nH]1 [FLUOROURACIL] |  |  | 14.6 µM | 23.9 µM | 21.1 µM |  | 
O=C1N/C(=N\Cc2cccc(Cl)c2)S/C1=C1/CCNC(=O)c2[nH]ccc21 | 35.2 µM |  | 34.6 µM | 35.3 µM | 20.7 µM |  | 
O=C1N/C(=N\Cc2ccc(Cl)cc2)S/C1=C1/CCNC(=O)c2[nH]ccc21 | > 100 µM | > 100 µM | > 100 µM | > 100 µM | > 100 µM |  | 
O=C1N/C(=N\Cc2ccccc2Cl)S/C1=C1/CCNC(=O)c2[nH]ccc21 | > 100 µM | > 50 µM | > 100 µM | > 100 µM | 21.2 µM |  | 
CC(C)(C)c1ccc(C/N=C2\NC(=O)/C(=C3\CCNC(=O)c4[nH]ccc43)S2)cc1 | 43.9 µM | > 100 µM | 23.5 µM | 43.4 µM | 18.9 µM |  | 
CC[C@@]1(O)C(=O)OCc2c1cc1n(c2=O)Cc2cc3ccccc3nc2-1 [CAMPTOTHECIN] | 0.47 µM |  | 2.26 µM |  |  | Active | Active
O=C1N/C(=N\Cc2ccc3c(c2)OCO3)S/C1=C1/CCNC(=O)c2[nH]ccc21 | 19.9 µM | 4.25 µM | 11.2 µM | 16.5 µM | 4.31 µM |  | 
O=C1N/C(=N\Cc2ccc(F)cc2)S/C1=C1/CCNC(=O)c2[nH]c3ccccc3c21 | 36.5 µM | 30.8 µM | > 50 µM | 38 µM | 40.3 µM |  | 
COc1ccc(C/N=C2\NC(=O)/C(=C3\CCNC(=O)c4[nH]ccc43)S2)cc1 | 18.3 µM | 19.4 µM | 12.1 µM | 11.5 µM | 6.24 µM |  | 
O=C1N/C(=N\Cc2cccc(Cl)c2)S/C1=C1/CCNC(=O)c2[nH]c3ccccc3c21 | 33.7 µM | 25.2 µM | 23.8 µM | > 50 µM | 28.1 µM |  | 
COc1ccc(C/N=C2\NC(=O)/C(=C3\CCNC(=O)c4[nH]c5ccccc5c43)S2)cc1 | 3.73 µM | 17.5 µM | 9.68 µM | 12.3 µM | 6.33 µM |  | 
